Measured values from PubChem BioAssay (NCI).
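How tested: cells in 96-well plates exposed to compound for 48 hours at five concentrations. TGI is the concentration that stops growth completely.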

How the values were obtained:
Assay in all cases: inhibition of tumour cell growth, NCI panel, 48 h
RXF 393 renal = system: RXF 393 renal
M14 melanoma = system: M14 melanoma
SN12C renal = system: SN12C renal
MDA-MB-435 = system: MDA-MB-435
A498 renal = system: A498 renal
MDA-MB-231 breast = system: MDA-MB-231 breast
OVCAR-3 ovarian = system: OVCAR-3 ovarian
SNB-19 CNS = system: SNB-19 CNS
NCI-H460 lung = system: NCI-H460 lung
K-562 leukemia = system: K-562 leukemia
LOX IMVI melanoma = system: LOX IMVI melanoma
HT29 colon = system: HT29 colon
IGROV1 ovarian = system: IGROV1 ovarian
NCI-H23 lung = system: NCI-H23 lung
HOP-62 NSCLC = system: HOP-62 NSCLC
OVCAR-8 ovarian = system: OVCAR-8 ovarian
SK-MEL-2 melanoma = system: SK-MEL-2 melanoma
U251 CNS = system: U251 CNS

Which results are given for `COc1ccc(N2C(=O)C(C)SC2c2cc3cc(Br)ccc3nc2Cl)cc1` (stereo not drawn)?
TGI (RXF 393 renal): 93.6 µM; TGI (M14 melanoma): > 100 µM; TGI (SN12C renal): > 100 µM; TGI (MDA-MB-435): 50.5 µM; TGI (A498 renal): > 100 µM; TGI (MDA-MB-231 breast): > 100 µM; TGI (OVCAR-3 ovarian): > 100 µM; TGI (SNB-19 CNS): > 100 µM; TGI (NCI-H460 lung): > 100 µM; TGI (K-562 leukemia): > 100 µM; TGI (LOX IMVI melanoma): > 100 µM; TGI (HT29 colon): > 100 µM; TGI (IGROV1 ovarian): > 100 µM; TGI (NCI-H23 lung): > 100 µM; TGI (HOP-62 NSCLC): > 100 µM; TGI (OVCAR-8 ovarian): > 100 µM; TGI (SK-MEL-2 melanoma): 48.4 µM

Which TGI (RXF 393 renal) does the source give for `CC1=NN(C(=O)CC(=O)Nc2ccc(C)cc2)C(=O)C1N=Nc1ccc(S(=O)(=O)c2ccc(N=NC3C(=O)N(C(=O)CC(=O)Nc4ccc(C)cc4)N=C3C)cc2)cc1` (stereo not drawn) here?
Its TGI is over 100 µM.

And the TGI (M14 melanoma)?
Its TGI is over 100 µM.

What about the TGI (SN12C renal) of the same compound?
Its TGI is over 100 µM.

And the TGI (MDA-MB-435)?
The TGI was over 100 µM.

What about the TGI (A498 renal) of the same compound?
Its TGI is over 100 µM.

And the TGI (MDA-MB-231 breast)?
The TGI was over 100 µM.

What about the TGI (OVCAR-3 ovarian) of the same compound?
Its TGI is over 100 µM.

What about the TGI (SNB-19 CNS) of the same compound?
The TGI was over 100 µM.

And the TGI (NCI-H460 lung)?
Its TGI is over 100 µM.

And the TGI (K-562 leukemia)?
The TGI was over 100 µM.

What about the TGI (U251 CNS) of the same compound?
The TGI was over 100 µM.

What about the TGI (LOX IMVI melanoma) of the same compound?
Its TGI is over 100 µM.

What about the TGI (IGROV1 ovarian) of the same compound?
Its TGI is over 100 µM.

What about the TGI (NCI-H23 lung) of the same compound?
Its TGI is over 100 µM.

What about the TGI (HOP-62 NSCLC) of the same compound?
The TGI was over 100 µM.

What about the TGI (OVCAR-8 ovarian) of the same compound?
The TGI was over 100 µM.

What about the TGI (SK-MEL-2 melanoma) of the same compound?
The TGI was over 100 µM.

How did the TGI (RXF 393 renal) turn out when `CC1=C(C)C1[N+](=O)[O-]` was run?
Its TGI is over 100 µM.

And the TGI (M14 melanoma)?
Its TGI is over 100 µM.

And the TGI (SN12C renal)?
Its TGI is over 100 µM.

And the TGI (MDA-MB-435)?
The TGI was over 100 µM.

And the TGI (A498 renal)?
Its TGI is over 100 µM.

And the TGI (MDA-MB-231 breast)?
Its TGI is over 100 µM.

What about the TGI (OVCAR-3 ovarian) of the same compound?
The TGI was over 100 µM.

What about the TGI (SNB-19 CNS) of the same compound?
Its TGI is over 100 µM.

And the TGI (NCI-H460 lung)?
The TGI was over 100 µM.

And the TGI (K-562 leukemia)?
Its TGI is over 100 µM.

What about the TGI (U251 CNS) of the same compound?
The TGI was over 100 µM.

What about the TGI (LOX IMVI melanoma) of the same compound?
The TGI was over 100 µM.

And the TGI (HT29 colon)?
The TGI was over 100 µM.

What about the TGI (IGROV1 ovarian) of the same compound?
The TGI was over 100 µM.

What about the TGI (NCI-H23 lung) of the same compound?
Its TGI is over 100 µM.

What about the TGI (HOP-62 NSCLC) of the same compound?
The TGI was over 100 µM.

And the TGI (OVCAR-8 ovarian)?
The TGI was over 100 µM.

With `Cc1cc2nc(N3C(=O)/C(=C/c4ccccc4S)N=C3c3ccccc3)sc2cc1C` as the compound, how does the TGI (RXF 393 renal) read?
Its TGI is 94.4 µM.

And the TGI (M14 melanoma)?
Its TGI is over 100 µM.

And the TGI (SN12C renal)?
The TGI was 82.6 µM.

What about the TGI (MDA-MB-435) of the same compound?
The TGI was 95.9 µM.

And the TGI (A498 renal)?
The TGI was 55.1 µM.

And the TGI (MDA-MB-231 breast)?
Its TGI is 86 µM.

And the TGI (OVCAR-3 ovarian)?
Its TGI is over 100 µM.

And the TGI (SNB-19 CNS)?
The TGI was over 100 µM.

What about the TGI (NCI-H460 lung) of the same compound?
Its TGI is over 100 µM.

And the TGI (K-562 leukemia)?
Its TGI is over 100 µM.

What about the TGI (U251 CNS) of the same compound?
Its TGI is over 100 µM.

What about the TGI (LOX IMVI melanoma) of the same compound?
Its TGI is over 100 µM.

What about the TGI (HT29 colon) of the same compound?
The TGI was 76.7 µM.

What about the TGI (IGROV1 ovarian) of the same compound?
The TGI was over 100 µM.

And the TGI (HOP-62 NSCLC)?
The TGI was over 100 µM.

And the TGI (OVCAR-8 ovarian)?
Its TGI is over 100 µM.

And the TGI (SK-MEL-2 melanoma)?
The TGI was 56.7 µM.

With `COc1cc(/C=C2\C(=O)N(c3ccccc3Cl)C(c3ccccc3)S2(=O)=O)cc(OC)c1OC` (stereo not drawn) as the compound, how does the TGI (RXF 393 renal) read?
Its TGI is 76.7 µM.

And the TGI (M14 melanoma)?
The TGI was over 100 µM.

And the TGI (SN12C renal)?
The TGI was 60.6 µM.

And the TGI (MDA-MB-435)?
The TGI was over 100 µM.

What about the TGI (A498 renal) of the same compound?
The TGI was over 100 µM.

What about the TGI (MDA-MB-231 breast) of the same compound?
The TGI was over 100 µM.

What about the TGI (OVCAR-3 ovarian) of the same compound?
The TGI was over 100 µM.

And the TGI (SNB-19 CNS)?
Its TGI is over 100 µM.

What about the TGI (NCI-H460 lung) of the same compound?
Its TGI is over 100 µM.

What about the TGI (K-562 leukemia) of the same compound?
Its TGI is 94.9 µM.

And the TGI (U251 CNS)?
Its TGI is 81.8 µM.

What about the TGI (LOX IMVI melanoma) of the same compound?
Its TGI is 50.5 µM.

What about the TGI (HT29 colon) of the same compound?
The TGI was 52.2 µM.

What about the TGI (NCI-H23 lung) of the same compound?
The TGI was over 100 µM.

What about the TGI (HOP-62 NSCLC) of the same compound?
Its TGI is over 100 µM.

And the TGI (OVCAR-8 ovarian)?
Its TGI is over 100 µM.

What about the TGI (SK-MEL-2 melanoma) of the same compound?
The TGI was over 100 µM.

`CN(C(=O)C1CCCCCC1=O)c1ccccc1Cl` (stereo not drawn) was tested. Which TGI (RXF 393 renal) did it give?
Its TGI is over 100 µM.

What about the TGI (M14 melanoma) of the same compound?
The TGI was over 100 µM.

And the TGI (SN12C renal)?
Its TGI is over 100 µM.

What about the TGI (MDA-MB-435) of the same compound?
The TGI was over 100 µM.

What about the TGI (A498 renal) of the same compound?
Its TGI is over 100 µM.

And the TGI (MDA-MB-231 breast)?
The TGI was over 100 µM.

What about the TGI (OVCAR-3 ovarian) of the same compound?
Its TGI is over 100 µM.

What about the TGI (SNB-19 CNS) of the same compound?
Its TGI is over 100 µM.

And the TGI (NCI-H460 lung)?
The TGI was over 100 µM.

What about the TGI (U251 CNS) of the same compound?
The TGI was over 100 µM.

What about the TGI (LOX IMVI melanoma) of the same compound?
The TGI was over 100 µM.

And the TGI (HT29 colon)?
The TGI was over 100 µM.

What about the TGI (IGROV1 ovarian) of the same compound?
Its TGI is over 100 µM.

What about the TGI (NCI-H23 lung) of the same compound?
Its TGI is over 100 µM.

What about the TGI (HOP-62 NSCLC) of the same compound?
Its TGI is over 100 µM.

What about the TGI (OVCAR-8 ovarian) of the same compound?
Its TGI is over 100 µM.

How did the TGI (RXF 393 renal) turn out when `COCn1cnc2c(=O)n(-c3ccc(OC)cc3)c(=S)n(-c3ccc(OC)cc3)c21` was run?
Its TGI is over 100 µM.

What about the TGI (M14 melanoma) of the same compound?
The TGI was over 100 µM.

What about the TGI (SN12C renal) of the same compound?
The TGI was over 100 µM.

What about the TGI (MDA-MB-435) of the same compound?
The TGI was over 100 µM.

What about the TGI (A498 renal) of the same compound?
The TGI was over 100 µM.

What about the TGI (MDA-MB-231 breast) of the same compound?
The TGI was over 100 µM.

And the TGI (OVCAR-3 ovarian)?
Its TGI is over 100 µM.

And the TGI (NCI-H460 lung)?
The TGI was over 100 µM.

What about the TGI (K-562 leukemia) of the same compound?
The TGI was over 100 µM.

What about the TGI (U251 CNS) of the same compound?
The TGI was over 100 µM.

And the TGI (LOX IMVI melanoma)?
The TGI was over 100 µM.

And the TGI (HT29 colon)?
Its TGI is over 100 µM.

And the TGI (IGROV1 ovarian)?
The TGI was over 100 µM.

And the TGI (NCI-H23 lung)?
The TGI was over 100 µM.

What about the TGI (HOP-62 NSCLC) of the same compound?
The TGI was over 100 µM.

What about the TGI (OVCAR-8 ovarian) of the same compound?
The TGI was over 100 µM.

And the TGI (SK-MEL-2 melanoma)?
The TGI was over 100 µM.
